The CheMixHub viscosity set

Assay: xn = mol fraction of the nth substance listed

CCNc1ccccc1 + COC(C)(C)C
viscosity [mPa·s], 101 kPa
Details | 293.15 K | 298.15 K | 303.15 K | 308.15 K | 313.15 K | 318.15 K
x1 = 0.0583 | 0.428 | 0.412 | 0.395 | 0.374 | 0.351 | 0.325
x1 = 0.1047 | 0.465 | 0.445 | 0.425 | 0.401 | 0.376 | 0.348
x1 = 0.1493 | 0.503 | 0.479 | 0.455 | 0.429 | 0.402 | 0.371
x1 = 0.2021 | 0.552 | 0.523 | 0.495 | 0.465 | 0.434 | 0.4
x1 = 0.2544 | 0.605 | 0.57 | 0.537 | 0.503 | 0.469 | 0.432
x1 = 0.3064 | 0.663 | 0.621 | 0.583 | 0.544 | 0.506 | –
x1 = 0.3508 | 0.718 | 0.668 | 0.625 | 0.582 | 0.54 | –
x1 = 0.4031 | 0.787 | 0.728 | 0.678 | 0.63 | 0.584 | –
x1 = 0.45 | 0.855 | 0.787 | 0.73 | 0.677 | 0.625 | –
x1 = 0.5021 | 0.938 | 0.858 | 0.793 | 0.733 | 0.675 | –
x1 = 0.5506 | 1.022 | 0.931 | 0.857 | 0.789 | 0.725 | –
x1 = 0.6036 | 1.123 | 1.017 | 0.932 | 0.856 | 0.784 | –
x1 = 0.6519 | 1.225 | 1.103 | 1.006 | 0.921 | 0.843 | –
x1 = 0.701 | 1.337 | 1.197 | 1.089 | 0.993 | 0.907 | –
x1 = 0.7521 | 1.465 | 1.304 | 1.181 | 1.074 | 0.979 | –
x1 = 0.7985 | 1.592 | 1.409 | 1.271 | 1.153 | 1.049 | –
x1 = 0.8501 | 1.745 | 1.536 | 1.38 | 1.247 | 1.132 | –
x1 = 0.9006 | 1.909 | 1.67 | 1.493 | 1.346 | 1.218 | –
x1 = 0.949 | 2.081 | 1.81 | 1.612 | 1.448 | 1.306 | –

CCNc1ccccc1 + COc1ccccc1
viscosity [mPa·s], 101 kPa
Details | 293.15 K | 298.15 K | 303.15 K | 308.15 K | 313.15 K | 318.15 K | 323.15 K
x1 = 0.0504 | 1.109 | 1.026 | 0.948 | 0.881 | 0.807 | 0.764 | 0.709
x1 = 0.1074 | 1.15 | 1.059 | 0.977 | 0.907 | 0.83 | 0.784 | 0.727
x1 = 0.1541 | 1.193 | 1.095 | 1.009 | 0.935 | 0.855 | 0.805 | 0.746
x1 = 0.2094 | 1.234 | 1.13 | 1.039 | 0.961 | 0.878 | 0.825 | 0.763
x1 = 0.2506 | 1.275 | 1.164 | 1.067 | 0.985 | 0.9 | 0.844 | 0.78
x1 = 0.3006 | 1.318 | 1.2 | 1.098 | 1.012 | 0.924 | 0.864 | 0.798
x1 = 0.3502 | 1.364 | 1.237 | 1.13 | 1.04 | 0.949 | 0.885 | 0.816
x1 = 0.4029 | 1.416 | 1.279 | 1.166 | 1.071 | 0.976 | 0.908 | 0.837
x1 = 0.4504 | 1.466 | 1.32 | 1.201 | 1.1 | 1.002 | 0.931 | 0.857
x1 = 0.499 | 1.519 | 1.363 | 1.24 | 1.133 | 1.031 | 0.955 | 0.878
x1 = 0.5504 | 1.58 | 1.412 | 1.281 | 1.169 | 1.063 | 0.981 | 0.902
x1 = 0.5911 | 1.64 | 1.461 | 1.322 | 1.204 | 1.094 | 1.007 | 0.924
x1 = 0.6505 | 1.711 | 1.517 | 1.371 | 1.245 | 1.131 | 1.038 | 0.951
x1 = 0.7027 | 1.783 | 1.578 | 1.421 | 1.288 | 1.167 | 1.069 | 0.978
x1 = 0.7493 | 1.853 | 1.635 | 1.47 | 1.331 | 1.203 | 1.098 | 1.004
x1 = 0.7972 | 1.936 | 1.699 | 1.523 | 1.375 | 1.242 | 1.131 | 1.032
x1 = 0.8509 | 2.024 | 1.766 | 1.578 | 1.421 | 1.283 | 1.164 | 1.06
x1 = 0.8913 | 2.103 | 1.831 | 1.632 | 1.466 | 1.322 | 1.196 | 1.087
x1 = 0.9501 | 2.191 | 1.9 | 1.688 | 1.514 | 1.363 | 1.23 | 1.116

CC(=O)O + O
Details | viscosity [mPa·s]
293.15 K, 101 kPa, x1 = 0.0322 | 1.205
293.15 K, 101 kPa, x1 = 0.0731 | 1.433
293.15 K, 101 kPa, x1 = 0.1134 | 1.649
293.15 K, 101 kPa, x1 = 0.1667 | 1.892
293.15 K, 101 kPa, x1 = 0.2308 | 2.14
293.15 K, 101 kPa, x1 = 0.3102 | 2.385
293.15 K, 101 kPa, x1 = 0.4112 | 2.607
293.15 K, 101 kPa, x1 = 0.7286 | 2.39
293.15 K, 101.33 kPa, x1 = 0.03226 | 1.237
293.15 K, 101.33 kPa, x1 = 0.1139 | 1.696
293.15 K, 101.33 kPa, x1 = 0.2308 | 2.188
293.15 K, 101.33 kPa, x1 = 0.4118 | 2.686
293.15 K, 101.33 kPa, x1 = 0.5011 | 2.784
293.15 K, 101.33 kPa, x1 = 0.5454 | 2.781
293.15 K, 101.33 kPa, x2 = 0.0132 | 1.455
295.3 K, 101.33 kPa, x1 = 0.0321 | 1.135
298.15 K, 101 kPa, x1 = 0.0322 | 1.073
298.15 K, 101 kPa, x1 = 0.0731 | 1.27
298.15 K, 101 kPa, x1 = 0.1134 | 1.452
298.15 K, 101 kPa, x1 = 0.1667 | 1.644
298.15 K, 101 kPa, x1 = 0.2308 | 1.866
298.15 K, 101 kPa, x1 = 0.3102 | 2.086
298.15 K, 101 kPa, x1 = 0.4112 | 2.272
298.15 K, 101 kPa, x1 = 0.5449 | 2.353
298.15 K, 101 kPa, x1 = 0.7286 | 2.105
298.15 K, 101.33 kPa, x1 = 0.016 | 0.988
298.15 K, 101.33 kPa, x1 = 0.034 | 1.08
298.15 K, 101.33 kPa, x1 = 0.0684 | 1.232
298.15 K, 101.33 kPa, x1 = 0.07 | 1.254
298.15 K, 101.33 kPa, x1 = 0.1242 | 1.437
298.15 K, 101.33 kPa, x1 = 0.1648 | 1.633
298.15 K, 101.33 kPa, x1 = 0.2268 | 1.824
298.15 K, 101.33 kPa, x1 = 0.2289 | 1.867
298.15 K, 101.33 kPa, x1 = 0.2844 | 1.986
298.15 K, 101.33 kPa, x1 = 0.3218 | 2.091
298.15 K, 101.33 kPa, x1 = 0.3273 | 2.103
298.15 K, 101.33 kPa, x1 = 0.4187 | 2.248
298.15 K, 101.33 kPa, x1 = 0.436 | 2.333
298.15 K, 101.33 kPa, x1 = 0.4699 | 2.305
298.15 K, 101.33 kPa, x1 = 0.5177 | 2.374
298.15 K, 101.33 kPa, x1 = 0.5367 | 2.254
298.15 K, 101.33 kPa, x1 = 0.737 | 2.06
298.15 K, 101.33 kPa, x1 = 0.8576 | 1.689
298.15 K, 101.33 kPa, x1 = 0.9548 | 1.223
300.27 K, 101.33 kPa, x1 = 0.03428 | 1.014
303.15 K, 101 kPa, x1 = 0.0322 | 0.953
303.15 K, 101 kPa, x1 = 0.0731 | 1.12
303.15 K, 101 kPa, x1 = 0.1134 | 1.276
303.15 K, 101 kPa, x1 = 0.1667 | 1.452
303.15 K, 101 kPa, x1 = 0.2308 | 1.634
303.15 K, 101 kPa, x1 = 0.3102 | 1.816
303.15 K, 101 kPa, x1 = 0.4112 | 1.977
303.15 K, 101 kPa, x1 = 0.7286 | 1.847
303.55 K, 101.33 kPa, x1 = 0.0321 | 0.956
303.65 K, 101.33 kPa, x1 = 0.03428 | 0.939
308.15 K, 101 kPa, x1 = 0.0322 | 0.855
308.15 K, 101 kPa, x1 = 0.0731 | 1.003
308.15 K, 101 kPa, x1 = 0.1134 | 1.135
308.15 K, 101 kPa, x1 = 0.1667 | 1.289
308.15 K, 101 kPa, x1 = 0.2308 | 1.447
308.15 K, 101 kPa, x1 = 0.3102 | 1.612
308.15 K, 101 kPa, x1 = 0.4112 | 1.76
308.15 K, 101 kPa, x1 = 0.5449 | 1.813
308.15 K, 101 kPa, x1 = 0.7286 | 1.653
313.15 K, 100 kPa, x1 = 0.1001 | 0.997
313.15 K, 100 kPa, x1 = 0.2001 | 1.278
313.15 K, 100 kPa, x1 = 0.2998 | 1.467
313.15 K, 100 kPa, x1 = 0.3999 | 1.564
313.15 K, 100 kPa, x1 = 0.4996 | 1.585
313.15 K, 100 kPa, x1 = 0.5999 | 1.548
313.15 K, 100 kPa, x1 = 0.7002 | 1.461
313.15 K, 100 kPa, x1 = 0.7992 | 1.328
313.15 K, 100 kPa, x1 = 0.9001 | 1.14
313.15 K, 101 kPa, x1 = 0.0322 | 0.775
313.15 K, 101 kPa, x1 = 0.0731 | 0.903
313.15 K, 101 kPa, x1 = 0.1134 | 1.014
313.15 K, 101 kPa, x1 = 0.1667 | 1.158
313.15 K, 101 kPa, x1 = 0.2308 | 1.297
313.15 K, 101 kPa, x1 = 0.3102 | 1.426
313.15 K, 101 kPa, x1 = 0.4112 | 1.549
313.15 K, 101 kPa, x1 = 0.5449 | 1.614
313.15 K, 101 kPa, x1 = 0.7286 | 1.48
318.15 K, 101 kPa, x1 = 0.0322 | 0.709
318.15 K, 101 kPa, x1 = 0.0731 | 0.819
318.15 K, 101 kPa, x1 = 0.1134 | 0.922
318.15 K, 101 kPa, x1 = 0.1667 | 1.041
318.15 K, 101 kPa, x1 = 0.2308 | 1.165
318.15 K, 101 kPa, x1 = 0.3102 | 1.286
318.15 K, 101 kPa, x1 = 0.4112 | 1.397
318.15 K, 101 kPa, x1 = 0.5449 | 1.453
318.15 K, 101 kPa, x1 = 0.7286 | 1.34
323.15 K, 101 kPa, x1 = 0.0322 | 0.644
323.15 K, 101 kPa, x1 = 0.0731 | 0.742
323.15 K, 101 kPa, x1 = 0.1134 | 0.842
323.15 K, 101 kPa, x1 = 0.1667 | 0.943
323.15 K, 101 kPa, x1 = 0.2308 | 1.052
323.15 K, 101 kPa, x1 = 0.3102 | 1.166
323.15 K, 101 kPa, x1 = 0.4112 | 1.265
323.15 K, 101 kPa, x1 = 0.5449 | 1.316
323.15 K, 101 kPa, x1 = 0.7286 | 1.235
